Measurements: patent publication US5594157A, “Process for making taxol derivatives” (Abbott Laboratories, priority 1995, dated 1997)
Values after ≈ are worked out from the molar mass of the structure shown. Like-named read-outs stand apart in the source and are kept apart here.

Key:
[1] = test system: A549; experiment: In vitro tumor cell cytotoxicity, three day MTT microtiter assay (A549); format: cell-based, human; conditions: for IC50: Homo sapiens, read-out: In vitro tumor cell cytotoxicity (IC50)
Method: (§1) A three day microtiter assay was used to measure the growth inhibition of cultured cells exposed to a range of drug concentrations. Metabolic activity was measured by the cells' ability to reduce the tetrazolium dye, MTT (3-(4,5-dimethylthiazol-2-yl-2,5-diphenyltetrazolium bromide) to a quantifiable colored end product, which absorbs at 570 nm in the visible spectrum. Surviving cells reduce the MTT dye.
(§2) Test compounds were dissolved in dimethyl sulfoxide (DMSO) and diluted, first with Earle's Balanced Salt Solution, followed by culture medium, to twice the highest concentration of compound to be tested. From this concentrated stock, two-fold serial dilutions were prepared in 96-well microtiter trays, each well containing twice the desired final concentration of compound. Each concentration was tested in triplicate and compared to triplicate drug-free controls.
(§3) The cells were grown in the same medium used for diluting the compounds and then harvested using trypsinization. This involved removing the medium by aspiration; rinsing the cell monolayer twice with Earle's Balanced Salt Solution; adding trypsin (0.05%)/EDTA (0.53 mM; for each 25 cm^2, approximately 0.2 mL), tilting to cover the monolayer, and then withdrawing trypsin leaving only a thin film of solution; incubating at room temperature until the cell monolayers detached (as determined by visual and/or microscopic observation); adding medium contaiing fetal calf serum to stop the action of the trypsin and resuspend the cells; triturating to aid dissociation of cell clumps; and determining the number of cells per milliliter by electronic cell counter (e.g. Coulter Counter) or by mixing an aliquot of cell suspension with Trypan Blue (0.4% in normal saline) and counting the viable cells using a hemacytometer.
(§4) After harvesting and determination of viable cell counts, cell density was adjusted to 25,000 cells/mL. Inoculum (0.1 mL) containing the cells was then added to each well for a final concentration of 2,500 cells per well. Addition of the inoculum diluted the test compounds to the desired final concentration.
(§5) Microtiter trays were then incubated for three days at 36° C. in a humidified atmosphere containing 5% carbon dioxide. After three days, 20 microtiters of 5 mg/mL MTT in phosphate-buffered saline solution were added to each well. Trays were returned to the incubator for two to four hours to allow the surviving cells to reduce the dye. Medium and unreduced dye were removed by aspiration. DMSO was added to each well to dissolve the water-insoluble, colored end product of the dye reduction so that it could be measured spectrophotometrically at 570 nm.

[2] = test system: P-388; experiment: In vitro tumor cell cytotoxicity, three day MTT microtiter assay (P-388); format: cell-based, mouse; conditions: for IC50: P388, 72 h, read-out: In vitro tumor cell cytotoxicity (IC50)
Method: as §1, §2, §3, §4, §5

[3] = P-388 (mouse leukemia), 3 days, MTT, absorbance at 570 nm
[4] = 72 h, A549, 3 days, MTT, absorbance at 570 nm

Compound	IC50 ([1]; A549, 72 h) [µg/mL]	IC50 ([2]; Mus musculus) [µg/mL]	IC50 [1, 4] [µg/mL]	IC50 [2, 3] [µg/mL]	other results
CC(=O)O[C@@H]1C2=C(C)[C@@H](OC(=O)[C@H](O)[C@@H](NC(=O)c3ccccc3)c3ccccc3)C[C@@](O)([C@@H](OC(=O)c3ccccc3)[C@@H]3[C@]4(OC(C)=O)CO[C@@H]4C[C@H](O)[C@@]3(C)[C@H]1O)C2(C)C [Example 8, 9-Dihydrotaxol]	0.016 (≈ 0.0187 µM)	0.049 (≈ 0.0572 µM)			
CC(=O)O[C@@]12CO[C@@H]1C[C@H](O)[C@]1(C)[C@@H]2[C@H](OC(=O)c2ccccc2)[C@]2(O)C[C@H](OC(=O)[C@H](O)[C@@H](NC(=O)c3ccccc3)c3ccccc3)C(C)=C([C@@H](O)[C@@H]1O)C2(C)C [Example 9, 10-Deacetyl-9-dihydrotaxol]					In vitro tumor cell cytotoxicity (IC50) ([1]; A549, 3 days, MTT, absorbance at 570 nm): 0.011 µg/mL; In vitro tumor cell cytotoxicity (IC50) [2, 3]: 0.14 µg/mL
CC(=O)O[C@@H]1C2=C(C)[C@@H](OC(=O)[C@H](O)[C@@H](NC(=O)c3ccccc3)c3ccccc3)C[C@@](O)([C@@H](OC(=O)c3ccccc3)[C@@H]3[C@]4(OC(C)=O)CO[C@@H]4C[C@@H]4OC(C)(C)O[C@@H]1[C@]43C)C2(C)C [Example 10, 9-Dihydrotaxol-7,9-isopropylidene ketal]	0.025 (≈ 0.0279 µM)	0.042 (≈ 0.0469 µM)			
CCC1O[C@H]2C[C@H]3OC[C@@]3(OC(C)=O)[C@H]3[C@H](OC(=O)c4ccccc4)[C@]4(O)C[C@H](OC(=O)[C@H](O)[C@@H](NC(=O)c5ccccc5)c5ccccc5)C(C)=C([C@@H](OC(C)=O)[C@H](O1)[C@]23C)C4(C)C (stereo partly drawn) [Example 11, 9-Dihydrotaxol-7,9-propylidene acetal]	0.023 (≈ 0.0257 µM)	0.022 (≈ 0.0246 µM)			
CC(=O)O[C@@H]1C2=C(C)[C@@H](OC(=O)[C@H](O)[C@@H](NC(=O)c3ccccc3)c3ccccc3)C[C@@](O)([C@@H](OC(=O)c3ccccc3)[C@@H]3[C@]4(OC(C)=O)CO[C@@H]4C[C@@H]4OC(c5ccccc5)O[C@@H]1[C@]43C)C2(C)C (stereo partly drawn) [Example 12, 9-Dihydrotaxol-7,9-benzylidene acetal]			1 (≈ 1.06 µM)	1 (≈ 1.06 µM)	
CC(=O)O[C@@H]1C2=C(C)[C@@H](OC(=O)[C@H](O)[C@@H](NC(=O)c3ccccc3)c3ccccc3)C[C@@](O)([C@@H](OC(=O)c3ccccc3)[C@@H]3[C@]4(OC(C)=O)CO[C@@H]4C[C@@H]4OC(CC(O)CO)O[C@@H]1[C@]43C)C2(C)C (stereo partly drawn) [Example 13, 9-Dihydrotaxol-7,9-(3,4-dihydroxy)butylidene acetal]	0.3 (≈ 0.318 µM)	0.18 (≈ 0.191 µM)			
CC(=O)O[C@@H]1C2=C(C)[C@@H](OC(=O)[C@H](O)[C@@H](NC(=O)c3ccccc3)c3ccccc3)C[C@@](O)([C@@H](OC(=O)c3ccccc3)[C@@H]3[C@]4(OC(C)=O)CO[C@@H]4C[C@@H]4OC(=S)O[C@@H]1[C@]43C)C2(C)C [Example 14, 9-Dihydrotaxol-7,9-thionocarbonate]	0.019 (≈ 0.0212 µM)	0.035 (≈ 0.039 µM)			
C=CCO[C@H]1C[C@H]2OC[C@@]2(OC(C)=O)[C@H]2[C@H](OC(=O)c3ccccc3)[C@]3(O)C[C@H](OC(=O)[C@H](O)[C@@H](NC(=O)c4ccccc4)c4ccccc4)C(C)=C([C@@H](OC(C)=O)[C@H](O)[C@]12C)C3(C)C [Example 15, 9-Dihydrotaxol-7-O-allyl ether]	0.001 (≈ 0.00112 µM)	0.0053 (≈ 0.00592 µM)			
CC(=O)O[C@@H]1C2=C(C)[C@@H](OC(=O)[C@H](O)[C@@H](NC(=O)c3ccccc3)c3ccccc3)C[C@@](O)([C@@H](OC(=O)c3ccccc3)[C@@H]3[C@]4(OC(C)=O)CO[C@@H]4C[C@H](OCC(O)CO)[C@@]3(C)[C@H]1O)C2(C)C (stereo partly drawn) [Example 16, 9-dihydrotaxol 7-O-(2,3-dihydroxypropyl) ether]			0.626 (≈ 0.673 µM)	> 1	
CCN(CC)CCO[C@H]1C[C@H]2OC[C@@]2(OC(C)=O)[C@H]2[C@H](OC(=O)c3ccccc3)[C@]3(O)C[C@H](OC(=O)[C@H](O)[C@@H](NC(=O)c4ccccc4)c4ccccc4)C(C)=C([C@@H](OC(C)=O)[C@H](O)[C@]12C)C3(C)C [Example 17]	0.4 (≈ 0.419 µM)	0.31 (≈ 0.325 µM)			
CC(=O)O[C@@H]1C2=C(C)[C@@H](OC(=O)[C@H](O)[C@@H](NC(=O)c3ccccc3)c3ccccc3)C[C@@](O)([C@@H](OC(=O)c3ccccc3)[C@@H]3[C@]4(OC(C)=O)CO[C@@H]4C[C@H](OCCO)[C@@]3(C)[C@H]1O)C2(C)C [Example 18, 9-Dihydrotaxol 7-O-(2-Hydroxyethyl) ether]			0.039 (≈ 0.0433 µM)	0.17 (≈ 0.189 µM)	
CC(=O)OCCO[C@H]1C[C@H]2OC[C@@]2(OC(C)=O)[C@H]2[C@H](OC(=O)c3ccccc3)[C@]3(O)C[C@H](OC(=O)[C@H](O)[C@@H](NC(=O)c4ccccc4)c4ccccc4)C(C)=C([C@@H](OC(C)=O)[C@H](O)[C@]12C)C3(C)C [Example 19, 9-Dihydrotaxol 7-O-(2-Acetoxyethyl) ether]			0.12 (≈ 0.127 µM)	0.079 (≈ 0.0839 µM)	
CC(=O)O[C@@H]1C2=C(C)[C@@H](OC(=O)[C@H](O)[C@@H](NC(=O)OC(C)(C)C)c3ccccc3)C[C@@](O)([C@@H](OC(=O)c3ccccc3)[C@@H]3[C@]4(OC(C)=O)CO[C@@H]4C[C@H](O)[C@@]3(C)[C@H]1O)C2(C)C [Example 20, N-Debenzoyl-N-t-butoxycarbonyl-9-dihydrotaxol]			0.0003 (≈ 0.000352 µM)	0.0025 (≈ 0.00293 µM)	
CC(=O)O[C@@]12CO[C@@H]1C[C@H](O)[C@]1(C)[C@@H]2[C@H](OC(=O)c2ccccc2)[C@]2(O)C[C@H](OC(=O)[C@H](O)[C@@H](NC(=O)OC(C)(C)C)c3ccccc3)C(C)=C([C@@H](O)[C@@H]1O)C2(C)C [Example 21, 10-Deacetyl-N-debenzoyl-N-t-butoxycarbonyl-9-dihydrotaxol]			0.00026 (≈ 0.000321 µM)	0.0028 (≈ 0.00346 µM)	
CC(=O)O[C@@H]1C2=C(C)[C@@H](OC(=O)[C@H](O)[C@@H](NC(=O)CC(C)(C)C)c3ccccc3)C[C@@](O)([C@@H](OC(=O)c3ccccc3)[C@@H]3[C@]4(OC(C)=O)CO[C@@H]4C[C@H](O)[C@@]3(C)[C@H]1O)C2(C)C [Example 22, N-Debenzoyl-N-t-butylacetyl-9-dihydrotaxol]			0.027 (≈ 0.0318 µM)	0.052 (≈ 0.0612 µM)	
CC(=O)O[C@@H]1C2=C(C)[C@@H](OC(=O)[C@H](O)[C@@H](NC(=O)OCC(C)C)c3ccccc3)C[C@@](O)([C@@H](OC(=O)c3ccccc3)[C@@H]3[C@]4(OC(C)=O)CO[C@@H]4C[C@H](O)[C@@]3(C)[C@H]1O)C2(C)C [Example 23, N-Debenzoyl-N-isobutoxycarbonyl-9-dihydrotaxol]	0.0043 (≈ 0.00505 µM)	0.028 (≈ 0.0329 µM)			
CC(=O)O[C@@H]1C2=C(C)[C@@H](OC(=O)[C@H](O)[C@@H](NC(=O)OC34CC5CC(CC(C5)C3)C4)c3ccccc3)C[C@@](O)([C@@H](OC(=O)c3ccccc3)[C@@H]3[C@]4(OC(C)=O)CO[C@@H]4C[C@H](O)[C@@]3(C)[C@H]1O)C2(C)C [Example 24, N-Debenzoyl-N-adamantoxycarbonyl-9-dihydrotaxol]	0.0043 (≈ 0.00462 µM)	0.01 (≈ 0.0108 µM)			
CC(=O)O[C@@H]1C2=C(C)[C@@H](OC(=O)[C@H](O)[C@@H](NC(=O)OC(C)C)c3ccccc3)C[C@@](O)([C@@H](OC(=O)c3ccccc3)[C@@H]3[C@]4(OC(C)=O)CO[C@@H]4C[C@H](O)[C@@]3(C)[C@H]1O)C2(C)C [Example 25, N-Debenzoyl-N-isopropoxycarbonyl-9-dihydrotaxol]			0.0012 (≈ 0.00143 µM)	0.0092 (≈ 0.011 µM)	
CC(=O)O[C@@H]1C2=C(C)[C@@H](OC(=O)[C@H](O)[C@@H](NC(=O)OCc3ccccc3)c3ccccc3)C[C@@](O)([C@@H](OC(=O)c3ccccc3)[C@@H]3[C@]4(OC(C)=O)CO[C@@H]4C[C@H](O)[C@@]3(C)[C@H]1O)C2(C)C [Example 26, N-Debenzoyl-N-benzyloxycarbonyl-9-dihydrotaxol]	0.031 (≈ 0.035 µM)	0.057 (≈ 0.0643 µM)			
CC(=O)O[C@@H]1C2=C(C)[C@@H](OC(=O)[C@H](O)[C@@H](NC(=O)C(C)(C)C)c3ccccc3)C[C@@](O)([C@@H](OC(=O)c3ccccc3)[C@@H]3[C@]4(OC(C)=O)CO[C@@H]4C[C@H](O)[C@@]3(C)[C@H]1O)C2(C)C [Example 28, N-Debenzoyl-N-pivaloyl-9-dihydrotaxol]			0.11 (≈ 0.132 µM)	0.083 (≈ 0.0993 µM)	
CC(=O)N[C@@H](c1ccccc1)[C@@H](O)C(=O)O[C@H]1C[C@@]2(O)[C@@H](OC(=O)c3ccccc3)[C@@H]3[C@]4(OC(C)=O)CO[C@@H]4C[C@H](O)[C@@]3(C)[C@@H](O)[C@H](OC(C)=O)C(=C1C)C2(C)C [Example 29, N-Debenzoyl-N-acetyl-9-dihydrotaxol]			2.1 (≈ 2.65 µM)	2.02 (≈ 2.54 µM)	
